Laboratory results: ChEMBL document CHEMBL1201862, “PubChem BioAssay data set” (2004)
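How tested: cells in 96-well plates exposed to compound for 48 hours at five concentrations. GI50 = concentration required for 50% inhibition of growth.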 Calls of active or inactive are those of the source. Cut-off read from the data, not from the text of the source: active = GI50 up to about 1.1 µM and inactive = higher.

Tests used:
Test in all cases: NCI tumour cell line growth inhibition, 48 h
786-0 = tested on: 786-0
A498 = tested on: A498
A549 = tested on: A549
ACHN = tested on: ACHN
BT-549 = tested on: BT-549
CAKI-1 = tested on: CAKI-1
CCRF-CEM = tested on: CCRF-CEM
COLO 205 = tested on: COLO 205
DU-145 = tested on: DU-145
EKVX = tested on: EKVX
HCC 2998 = tested on: HCC 2998
HCT-116 = tested on: HCT-116
HCT-15 = tested on: HCT-15
HL-60 = tested on: HL-60
HOP-62 = tested on: HOP-62
HOP-92 = tested on: HOP-92
HT-29 = tested on: HT-29
Hs-578T = tested on: Hs-578T
IGROV-1 = tested on: IGROV-1
K562 = tested on: K562
KM12 = tested on: KM12
LOX IMVI = tested on: LOX IMVI
M14 = tested on: M14
MCF7 = tested on: MCF7
MDA-MB-231 = tested on: MDA-MB-231
MDA-MB-435 = tested on: MDA-MB-435
MDA-N = tested on: MDA-N
MOLT-4 = tested on: MOLT-4
Malme-3M = tested on: Malme-3M
NCI-H226 = tested on: NCI-H226
NCI-H23 = tested on: NCI-H23
NCI-H460 = tested on: NCI-H460
NCI/ADR-RES = tested on: NCI/ADR-RES
OVCAR-3 = tested on: OVCAR-3
OVCAR-4 = tested on: OVCAR-4
OVCAR-5 = tested on: OVCAR-5
OVCAR-8 = tested on: OVCAR-8
PC-3 = tested on: PC-3
RPMI-8226 = tested on: RPMI-8226
RXF 393 = tested on: RXF 393
SF-268 = tested on: SF-268
SF-295 = tested on: SF-295
SF-539 = tested on: SF-539
SK-MEL-28 = tested on: SK-MEL-28
SK-MEL-2 = tested on: SK-MEL-2
SK-MEL-5 = tested on: SK-MEL-5
SK-OV-3 = tested on: SK-OV-3
SN12C = tested on: SN12C
SNB-19 = tested on: SNB-19
SNB-75 = tested on: SNB-75
SW-620 = tested on: SW-620
T47D = tested on: T47D
TK-10 = tested on: TK-10
U-251 = tested on: U-251
UACC-257 = tested on: UACC-257
UACC-62 = tested on: UACC-62
UO-31 = tested on: UO-31
NCI-H522 = tested on: NCI-H522

Measured: GI50

N[C@@H](Cc1ccccc1)C(=O)N1CCC[C@@H]1P(=O)(Oc1ccccc1)Oc1ccccc1
inactive: 786-0 > 100 µM | A498 > 100 µM | A549 > 100 µM | ACHN > 100 µM | BT-549 > 100 µM | CAKI-1 > 100 µM | CCRF-CEM > 100 µM | COLO 205 > 100 µM | DU-145 > 100 µM | EKVX > 100 µM | HCC 2998 39.3 µM | HCT-116 > 100 µM | HL-60 > 100 µM | HOP-62 > 100 µM | HOP-92 > 100 µM | HT-29 86.3 µM | Hs-578T > 100 µM | IGROV-1 > 100 µM | K562 77.8 µM | KM12 > 100 µM | LOX IMVI > 100 µM | M14 > 100 µM | MCF7 > 100 µM | MDA-MB-231 > 100 µM | MDA-MB-435 > 100 µM | MDA-N > 100 µM | MOLT-4 60.3 µM | Malme-3M > 100 µM | NCI-H226 > 100 µM | NCI-H23 > 100 µM | NCI-H460 > 100 µM | NCI/ADR-RES > 100 µM | OVCAR-3 > 100 µM | OVCAR-4 > 100 µM | OVCAR-5 > 100 µM | OVCAR-8 > 100 µM | PC-3 33.6 µM | RPMI-8226 96.4 µM | RXF 393 > 100 µM | SF-268 > 100 µM | SF-295 > 100 µM | SF-539 > 100 µM | SK-MEL-28 > 100 µM | SK-MEL-2 > 100 µM | SK-MEL-5 78.2 µM | SK-OV-3 > 100 µM | SN12C > 100 µM | SNB-19 > 100 µM | SNB-75 > 100 µM | SW-620 > 100 µM | T47D > 100 µM | TK-10 > 100 µM | U-251 > 100 µM | UACC-257 > 100 µM | UACC-62 > 100 µM | UO-31 > 100 µM
> 100 µM: HCT-15

c1ccc2c(c1)[C@@H]1O[C@@H]1[C@@]13O[C@@]21[C@H]1O[C@H]1c1ccccc13
19.5 µM: HCT-15
inactive: 786-0 15.2 µM | A498 15.7 µM | A549 15.7 µM | ACHN 12.9 µM | BT-549 16.2 µM | CAKI-1 10.8 µM | CCRF-CEM 4.48 µM | COLO 205 15.7 µM | DU-145 15.3 µM | EKVX 17 µM | HCC 2998 16.6 µM | HCT-116 12.1 µM | HL-60 13.3 µM | HOP-62 15.5 µM | HOP-92 9.89 µM | HT-29 20.2 µM | Hs-578T 13 µM | IGROV-1 12.2 µM | K562 13.6 µM | KM12 12.9 µM | LOX IMVI 10.2 µM | M14 15.6 µM | MCF7 10.1 µM | MDA-MB-231 15.8 µM | MDA-MB-435 13.7 µM | MDA-N 15.6 µM | MOLT-4 10.6 µM | Malme-3M 12.7 µM | NCI-H226 15.3 µM | NCI-H23 14 µM | NCI-H460 14.7 µM | NCI-H522 10.8 µM | NCI/ADR-RES 16.3 µM | OVCAR-3 16.5 µM | OVCAR-4 11.9 µM | OVCAR-5 17.1 µM | OVCAR-8 15.6 µM | PC-3 13.1 µM | RPMI-8226 9.16 µM | RXF 393 12.6 µM | SF-268 13.7 µM | SF-295 15.1 µM | SF-539 16.5 µM | SK-MEL-28 16.9 µM | SK-MEL-2 14.7 µM | SK-MEL-5 12.9 µM | SK-OV-3 21.5 µM | SN12C 17.7 µM | SNB-19 16.1 µM | SNB-75 12.9 µM | SW-620 12.8 µM | T47D 17.8 µM | TK-10 18.1 µM | U-251 12.3 µM | UACC-257 17.6 µM | UACC-62 12.2 µM | UO-31 33.4 µM

c1ccc(/N=C2\c3ccsc3/C(=N/c3ccccc3)c3ccsc32)cc1
2.04 µM: HCT-15
inactive: 786-0 2.75 µM | A498 8.11 µM | A549 2.03 µM | ACHN 1.71 µM | BT-549 2.07 µM | CAKI-1 4.49 µM | CCRF-CEM 2.97 µM | COLO 205 2.63 µM | DU-145 1.73 µM | EKVX 2.09 µM | HCC 2998 3.94 µM | HCT-116 1.93 µM | HL-60 1.61 µM | HOP-62 1.63 µM | HOP-92 2.61 µM | HT-29 2.67 µM | Hs-578T 2.24 µM | IGROV-1 1.92 µM | K562 1.83 µM | KM12 2.36 µM | M14 1.34 µM | MCF7 2.62 µM | MDA-MB-231 1.77 µM | MOLT-4 1.9 µM | NCI-H226 5.57 µM | NCI-H460 2.01 µM | NCI-H522 1.98 µM | NCI/ADR-RES 1.98 µM | OVCAR-3 1.92 µM | OVCAR-4 1.77 µM | OVCAR-5 1.67 µM | OVCAR-8 2.11 µM | PC-3 2.16 µM | RPMI-8226 1.94 µM | RXF 393 1.77 µM | SF-268 2.4 µM | SF-295 1.7 µM | SF-539 1.99 µM | SK-MEL-28 2.01 µM | SK-MEL-2 1.6 µM | SK-OV-3 6.59 µM | SN12C 1.58 µM | SNB-19 1.98 µM | SNB-75 1.2 µM | SW-620 1.89 µM | T47D 1.52 µM | TK-10 5.6 µM | U-251 1.91 µM | UACC-257 1.29 µM | UACC-62 1.84 µM | UO-31 2.09 µM
active: LOX IMVI 0.458 µM | MDA-MB-435 0.213 µM | MDA-N 0.244 µM | Malme-3M 0.344 µM | NCI-H23 0.914 µM | SK-MEL-5 1.09 µM

O=C1C=C(C2=CC(=O)C(=O)c3ccccc32)c2ccccc2C1=O
inactive: 786-0 13 µM | A498 46.6 µM | A549 35.6 µM | ACHN 21 µM | BT-549 46.6 µM | CAKI-1 22 µM | CCRF-CEM 1.98 µM | COLO 205 18 µM | DU-145 14.9 µM | EKVX 34.8 µM | HCT-116 6.65 µM | HL-60 3.03 µM | HOP-62 24.2 µM | HOP-92 11.3 µM | HT-29 28.6 µM | Hs-578T 27.7 µM | IGROV-1 28.8 µM | K562 3.3 µM | KM12 18.6 µM | LOX IMVI 3.87 µM | M14 6.46 µM | MCF7 9.98 µM | MDA-MB-231 15.6 µM | MDA-MB-435 1.93 µM | MDA-N 2.02 µM | MOLT-4 2.44 µM | Malme-3M 3.44 µM | NCI-H226 38.5 µM | NCI-H23 5.07 µM | NCI-H522 2.76 µM | NCI/ADR-RES 23.2 µM | OVCAR-3 2.58 µM | OVCAR-4 47.6 µM | OVCAR-5 18.8 µM | OVCAR-8 20.2 µM | PC-3 15.2 µM | RPMI-8226 6.17 µM | RXF 393 10.9 µM | SF-268 13.5 µM | SF-295 21.2 µM | SF-539 19.4 µM | SK-MEL-28 4.26 µM | SK-MEL-2 19.5 µM | SK-MEL-5 2.85 µM | SK-OV-3 44.1 µM | SN12C 27 µM | SNB-19 29.7 µM | SNB-75 22.4 µM | SW-620 5.01 µM | T47D 19.5 µM | TK-10 7.46 µM | U-251 5.47 µM | UACC-257 6.24 µM | UACC-62 5.37 µM | UO-31 6.14 µM
11.8 µM: HCT-15
